Assay results as given in US10407467B2, “Polymyxin derivatives and their use in combination therapy together with different antibiotics” (priority 2013, dated 2019).
Bridge positions count the residues as written; N and C are the ends. Square brackets hold non-standard residues; d marks the D form. Peptide text beside a SMILES is read from it. * marks the point of attachment. ξ: configuration not given here. ξβ3hGly(cHex) = NC(CC(=O)*)C1CCCCC1; Thr(3ξ) = CC(O)[C@H](N)C(=O)O; Dab = NCC[C@H](N)C(=O)O

Key:
Type in all cases: cell-based
Pseudomonas aeruginosa [1] = assay: MIC, compound in combination with a second agent (broth microdilution); conditions: P. aeruginosa ATCC 10145; 1:1 combination with Novobiocin; total drug concentration
Outline: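 Broth microdilution with inoculum from 18-24 h Mueller-Hinton agar colonies adjusted to 0.5 McFarland, up to four strains per species. Compound combined 1:1 w/w with second agent (e.g. rifampicin), mass as salt form; MIC is total drug concentration. Duplicates, lower value reported if within 2-fold; modal value for repeat tests.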

Escherichia coli = assay: MIC, sole activity (no second agent)
Outline: (§1)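 Compound tested without a second agent in cation-adjusted MHB, up to four strains per species, inoculum at 0.5 McFarland from colonies grown 18-24 h on Mueller-Hinton agar. Run in duplicate, invalid beyond 2-fold disagreement, lower duplicate or modal repeat value given, expressed relative to Polymyxin B.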

Acinetobacter baumannii = assay: MIC, sole activity (no second agent)
Outline: as §1

Klebsiella pneumoniae = assay: MIC, sole activity (no second agent)
Outline: as §1

Pseudomonas aeruginosa [2] = assay: MIC, sole activity (no second agent)
Outline: as §1

[3] = Second Agent none (Table 7B, by row order)

CC(C)C[C@@H]1NC(=O)[C@@H](Cc2ccccc2)NC(=O)[C@H](CCN)NC(=O)[C@@H](NC(=O)[C@H](CCN)NC(=O)[C@@H](NC(=O)CC(N)C2CCCCC2)C(C)O)CCNC(=O)[C@H](C(C)O)NC(=O)[C@H](CCN)NC(=O)[C@H](CCN)NC1=O (stereo partly drawn) [Example 10, [3(R,S)-3-Amino-3-cyclohexane-propanoyl]Polymyxin B nonapeptide] ({ξβ3hGly(cHex)}-[Thr(3ξ)][Dab][Dab][Dab][dF]L[Dab][Dab][Thr(3ξ)]; lactam 3-C)
MIC P. aeruginosa ATCC 10145 (Pseudomonas aeruginosa [1]): 0.5 micrograms/mL | MIC E. coli NCTC9001 (Escherichia coli; E. coli NCTC9001, second agent none): 4 micrograms/mL | MIC E. coli NCTC9001 (Escherichia coli; Second Agent none (Table 7A)): 4 microgram/mL | MIC E. coli ATCC25922 (Escherichia coli; Second Agent none (Table 7B)): 4 micrograms/mL | MIC E. coli CCUG 59342 (Escherichia coli; Second Agent none (Table 7B)): 0.5 micrograms/mL | MIC E. coli NCTC9001 (Escherichia coli; Second Agent none (Table 7B)): 8 micrograms/mL | MIC E. coli NCTC9001 (Escherichia coli; Second Agent none (Table 7C)): 4 micrograms/mL | MIC E. coli ATCC25922 (Escherichia coli; Second Agent none (Table 7E)): 8 micrograms/mL | MIC E. coli NCTC 13441 (Escherichia coli; Second Agent none (Table 7E)): 8 micrograms/mL | MIC E. coli ATCC25922 (Escherichia coli; Table 7F, E. coli ATCC25922, second agent none): 8 micrograms/mL | MIC E. coli NCTC 13441 (Escherichia coli; Table 7F, E. coli NCTC 13441, second agent none): 8 micrograms/mL | MIC E. coli ATCC25922 (Escherichia coli; Table 7G, E. coli ATCC25922, second agent none): 8 micrograms/mL | MIC E. coli ATCC25922 (Escherichia coli; Table 7H, E. coli ATCC25922, second agent none): 8 micrograms/mL | MIC E. coli NCTC 13441 (Escherichia coli; Table 7H, E. coli NCTC 13441, second agent none): 8 micrograms/mL | MIC E. coli ATCC25922 (Escherichia coli; Table 7I, E. coli ATCC25922, second agent none): 8 micrograms/mL | MIC E. coli ATCC25922 (Escherichia coli; in the absence of Rifampicin, strain ATCC25922): 2 micrograms/mL | MIC E. coli NCTC9001 (Escherichia coli; in the absence of Rifampicin, strain NCTC9001): 4 micrograms/mL | MIC A. baumannii NCTC 13424 (Acinetobacter baumannii; [3]): 2 micrograms/mL | MIC A. baumannii NCTC 13424 (Acinetobacter baumannii; Second Agent none (Table 7E)): 0.5 micrograms/mL | MIC A. baumannii NCTC 13424 (Acinetobacter baumannii; Table 7F, A. baumannii NCTC 13424, second agent none): 0.5 micrograms/mL | MIC A. baumannii NCTC 13424 (Acinetobacter baumannii; Table 7H, A. baumannii NCTC 13424, second agent none): 0.5 micrograms/mL | MIC A. baumannii ATCC13424 (Acinetobacter baumannii; in the absence of Rifampicin, strain ATCC13424): 1 micrograms/mL | MIC A. baumannii ATCCBAA-747 (Acinetobacter baumannii; in the absence of Rifampicin, strain ATCCBAA-747): 0.5 micrograms/mL | MIC A. baumannii CCUG57249 (Acinetobacter baumannii; in the absence of Rifampicin, strain CCUG 57249): 0.5 micrograms/mL | MIC A. baumannii NCTC 13423 (Acinetobacter baumannii; in the absence of Rifampicin, strain NCTC13423): 0.125 micrograms/mL | MIC K. pneumoniae ATCC BAA-1706 (Klebsiella pneumoniae; K. pneumoniae ATCC BAA-1706, second agent none): 0.5 micrograms/mL | MIC K. pneumoniae CCUG 59348 (Klebsiella pneumoniae; K. pneumoniae CCUG 59348, second agent none): >32 micrograms/mL | MIC K. pneumoniae NCTC 13442 (Klebsiella pneumoniae; K. pneumoniae NCTC 13442, second agent none): >32 micrograms/mL | MIC K. pneumoniae CCUG 59348 (Klebsiella pneumoniae; Second Agent none (Table 7A)): >32 microgram/mL | MIC K. pneumoniae CCUG 59626 (Klebsiella pneumoniae; Second Agent none (Table 7A)): 0.25 microgram/mL | MIC K. pneumoniae NCTC 13442 (Klebsiella pneumoniae; Second Agent none (Table 7A)): >32 microgram/mL | MIC K. pneumoniae CCUG 59348 (Klebsiella pneumoniae; Second Agent none (Table 7B)): >32 micrograms/mL | MIC K. pneumoniae NCTC 13442 (Klebsiella pneumoniae; Second Agent none (Table 7B)): >32 micrograms/mL | MIC K. pneumoniae ATCC 4352 (Klebsiella pneumoniae; [3]): 0.5 micrograms/mL | MIC K. pneumoniae ATCC BAA-1706 (Klebsiella pneumoniae; [3]): 0.5 micrograms/mL | MIC K. pneumoniae CCUG 59348 (Klebsiella pneumoniae; Second Agent none (Table 7C)): >32 micrograms/mL | MIC K. pneumoniae NCTC 13442 (Klebsiella pneumoniae; Second Agent none (Table 7C)): >32 micrograms/mL | MIC K. pneumoniae ATCC 4352 (Klebsiella pneumoniae; Second Agent none (Table 7E)): 1 micrograms/mL | MIC K. pneumoniae CCUG 59349 (Klebsiella pneumoniae; Second Agent none (Table 7E)): 8 micrograms/mL | MIC K. pneumoniae ATCC 4352 (Klebsiella pneumoniae; Table 7F, K. pneumoniae ATCC4352, second agent none): 1 micrograms/mL | MIC K. pneumoniae CCUG 59349 (Klebsiella pneumoniae; Table 7F, K. pneumoniae CCUG 59349, second agent none): 8 micrograms/mL | MIC K. pneumoniae ATCC 4352 (Klebsiella pneumoniae; Table 7G, K. pneumoniae ATCC4352, second agent none): 1 micrograms/mL | MIC K. pneumoniae ATCC 4352 (Klebsiella pneumoniae; Table 7H, K. pneumoniae ATCC4352, second agent none): 1 micrograms/mL | MIC K. pneumoniae CCUG 59349 (Klebsiella pneumoniae; Table 7H, K. pneumoniae CCUG 59349, second agent none): 8 micrograms/mL | MIC K. pneumoniae ATCC 4352 (Klebsiella pneumoniae; Table 7I, K. pneumoniae ATCC4352, second agent none): 1 micrograms/mL | MIC K. pneumoniae ATCC 4352 (Klebsiella pneumoniae; in the absence of Rifampicin, strain ATCC 4352): 1 micrograms/mL | MIC K. pneumoniae ATCC-BAA2146 (Klebsiella pneumoniae; in the absence of Rifampicin, strain ATCC-BAA2146): 32 micrograms/mL | MIC K. pneumoniae CCUG-59348 (Klebsiella pneumoniae; in the absence of Rifampicin, strain CCUG-59348): >32 micrograms/mL | MIC K. pneumoniae NCTC-13438 (Klebsiella pneumoniae; in the absence of Rifampicin, strain NCTC-13438): >32 micrograms/mL | MIC P. aeruginosa CCUG 59626 (Pseudomonas aeruginosa [2]; P. aeruginosa CCUG 59626, second agent none): 0.25 micrograms/mL | MIC P. aeruginosa ATCC 27853 (Pseudomonas aeruginosa [2]; [3]): 0.25 micrograms/mL | MIC P. aeruginosa CCUG 59626 (Pseudomonas aeruginosa [2]; [3]): 0.25 micrograms/mL | MIC P. aeruginosa CCUG 59626 (Pseudomonas aeruginosa [2]; Second Agent none (Table 7C)): 0.25 micrograms/mL | MIC P. aeruginosa ATCC 10145 (Pseudomonas aeruginosa [2]; Second Agent none (Table 7E)): 0.25 micrograms/mL | MIC P. aeruginosa ATCC 10145 (Pseudomonas aeruginosa [2]; Table 7F, P. aeruginosa ATCC 10145, second agent none): 0.25 micrograms/mL | MIC P. aeruginosa ATCC 10145 (Pseudomonas aeruginosa [2]; Table 7H, P. aeruginosa ATCC 10145, second agent none): 0.25 micrograms/mL | MIC P. aeruginosa ATCC 27853 (Pseudomonas aeruginosa [2]; in the absence of Rifampicin, strain ATCC27853): 0.5 micrograms/mL | MIC P. aeruginosa ATCC-47 (Pseudomonas aeruginosa [2]; in the absence of Rifampicin, strain ATCC-47): 1 micrograms/mL | MIC P. aeruginosa ATCCCRM-9027 (Pseudomonas aeruginosa [2]; in the absence of Rifampicin, strain ATCCCRM-9027): 0.25 micrograms/mL | MIC P. aeruginosa CCUG 59626 (Pseudomonas aeruginosa [2]; in the absence of Rifampicin, strain CCUG 59626): 0.25 micrograms/mL
